Assay results as given in patent publication US20250375453A1, “HIGH-EFFICIENCY ANTIMICROBIAL COMPOSITION” (CM4CURE S.A., priority 2023, published 2025).

Key:
[1] = tested on: Pseudomonas aeruginosa; conditions: cited from earlier work
[2] = tested on: Aspergillus spp.; conditions: cited from earlier work
[3] = tested on: Candida albicans; conditions: cited from earlier work
[4] = tested on: Staphylococcus aureus MRSA; conditions: cited from earlier work
[5] = tested on: Candida tropicalis; conditions: cited from earlier work
[6] = tested on: Vancomycin-resistant Enterococcus faecalis (VRE, ATCC BAA-2573); assay: Synergy checkerboard assay / broth micro-dilution MIC (ISO 20776-1 with modifications); type: cell-based
Experimental: • 1. Preparation of the inoculum of Vancomycin-resistant Enterococcus faecalis (VRE, ATCC BAA-2573). Inoculum is prepared by suspension of 1 colony of bacteria (medium size colony from Tryptic Soy agar plate) in 3 ml of Tryptic Soy broth (TSB) using a 200 μL tip. The solution is mixed by vortexing and incubated at 37° C. overnight (19-24 hours) under shaking at 200 rpm. • 2. Preparation of the Antimicrobial dilution on the day of the experiment. Stock solutions are performed with distilled water for all antimicrobial compound except for Fluometacyl (ethanol). Dilution for each condition is made in Mueller-Hinton broth (NMB). 50p of APIs dilution is added to wells of a 96 wells microplate (each condition in duplicate-triplicate). • Antimicrobial compounds were prepared as follows: • Fluometacyl (F) (4 mg/mL in 100% EtOH) served as a master stock. To obtain the final concentration of 40 μg/ml in the bacterial suspension, initial stock of 160 μg/ml in Mueller-Hinton broth (MHB) was prepared and further 2-fold diluted using the following serial dilution scheme: • (1): 40 μg/ml (160 μg/ml, prepared in MHB) • (2): 20 μg/ml (80 μg/ml, dilution in MHB) • (3): 10 μg/ml (40 μg/ml, dilution in MHB) • (4): 5 μg/ml (20 μg/ml, dilution in MHB) • (5): 2.5 μg/ml (10 μg/ml, dilution in MHB) • (6): 1.25 μg/ml (5 μg/ml, dilution in MHB) • Chlorhexidine acetate (CHLX) (2 mg/mL in H2O) served as a master stock. To obtain the final concentration of 4 μg/ml in the bacterial suspension, initial stock of 16 μg/ml in MHB was prepared and further 2-fold diluted using the following serial dilution scheme: • (1): 8 μg/ml (32 μg/ml, prepared in MHB) • (2): 4 μg/ml (16 μg/ml, prepared in MHB) • (3): 2 μg/ml (8 μg/ml, dilution in MHB) • (4): 1 μg/ml (4 μg/ml, dilution in MHB) • (5): 0.5 μg/ml (2 μg/ml, dilution in MHB) • (6): 0.25 μg/ml (1 μg/ml, dilution in MHB) • 3. Preparation of VRE. Before the experiment, the VRE bacterial suspension (incubated overnight) is diluted 100× in TSB in 4 mL of TSB and grown at 37 C under agitation 200 rpm until OD600 reaches 0.08 to 0.16. This corresponds to the cell density […]. 100 μl of the bacterial solution (OD600 ranging from 0.08 to 0.16) is added to 9 900 μL of Mueller-Hinton Broth (MHB) (dilution 1:100). • 4. Preparation of a 96-well plate. 100 μL of bacteria (diluted 1:100 in MHB from the point 3) is added in each well of the plate containing 100 μL of the serially diluted APIs alone or in combinations as shown in the p. 2. Bacteria should be added into the 96-well plate within the 30 minutes following the preparation of the bacteria in order to maintain the same number of CFU/mL. Plates are incubated at 37° C. overnight. A condition with MHB medium alone or bacteria without APIs will also be added as the control conditions. Since fluometacyl is dissolved in ethanol, extra conditions are added: MHB with ethanol in order to assess the effect of ethanol on bacterial growth. • Following scheme is applied: • 2 antibacterial compounds: 50 μL of a antimicrobial 1+50 μL of a antimicrobial 2+100 μL of bacterial suspension in MHB • 1 antibacterial compound: 50 μL of a drug 1/2+50 μL of MHB+100 μL of bacterial suspension in MHB • Growth control: 100 μL MHB (+/−Ethanol)+100 μL of bacterial suspension • BLANK: MHB only • 5. CFU counting of the initial challenge inoculum. 10 μL of the solution of the bacteria used as the positive control is diluted in 10 mL of TSB. 100 μL is spread on Tryptic Soy agar (done in triplicate) and incubated at 37° C. overnight • 6. Results. The MIC is the lowest concentration that inhibits completely the visible growth of the bacteria (no turbidity in a well). The OD at 600 nm is also recorded for each well as back-up data.
Synergy evaluation resulting from the comparison between activity of the combination of the antimicrobial compounds and their individual activities was represented as the Fractional Inhibitory Concentration (FIC) index value. […]

[7] = tested on: Streptococcus mutans; conditions: cited from earlier work
[8] = tested on: Lactobacillus fermentum; conditions: cited from earlier work
[9] = tested on: Porphyromonas gingivalis; conditions: cited from earlier work
[10] = tested on: Escherichia coli; conditions: cited from earlier work
[11] = tested on: Lactobacillus acidophilus; conditions: cited from earlier work
[12] = tested on: Lactobacillus reuteri; conditions: cited from earlier work
[13] = tested on: Staphylococcus aureus MSSA; conditions: cited from earlier work

MIC ([6]; Enterococcus faecalis, antimicrobial alone, read-out: MIC Monotherapy (X)): 4000 µg/mL
MIC combination dual therapy (Y) ([6]; in FLC + CHX combination): 500 to 2000 µg/mL
Structure (SMILES): [H]/N=C(\N/C(=N/[H])NCCCCCCNC(=N)NC(=N)Nc1ccc(Cl)cc1)Nc1ccc(Cl)cc1 [Chlorhexidine, chlorhexidine]
MIC of chlorhexdine [1]: 16 to 32 µg/mL
MIC of chlorhexdine [2]: 8 to 64 µg/mL
MIC of chlorhexdine [3]: 1 to 16 µg/mL
MIC of chlorhexdine [4]: 2 to 8 µg/mL
MIC of chlorhexdine [5]: 75 µg/mL
Ratio Y/X ([6]; MIC combination / MIC monotherapy): 0.125-0.5
MIC of chlorhexdine [7]: 0.9 to 4 µg/mL
MIC of chlorhexdine [8]: 0.25 to 1 µg/mL
MIC of chlorhexdine [9]: 0.9 µg/mL
MIC of chlorhexdine [10]: 2 to 16 µg/mL
MIC of chlorhexdine [11]: 0.5 to 2 µg/mL
MIC of chlorhexdine [12]: 0.125 to 4 µg/mL
MIC of chlorhexdine [13]: 0.25 to 8 µg/mL
